Measurements taken from patent US11787850B2, “Peptidic TGF-beta antagonists” (priority 2015, dated 2023).

Tested on: TGF-β1-induced PAI-1 protein production in A431 cells
Assay: Western blot for PAI-1 in A431 cells
Format: cell-based
Conditions: for inhibition of TGF-β1-induced PAI-1 protein production, peptide treated with DMSO / inhibition of TGF-β1-induced PAI-1 protein production, peptide in Tris left untreated: 100 pM TGF-β1, 18 hours; for inhibition of TGF-β1-induced PAI-1 protein production, peptide treated with DMSO: 0.5% DMSO (FIG. 9); for inhibition of TGF-β1-induced PAI-1 protein production, peptide in Tris left untreated: no DMSO (FIG. 9)
Description: FIG. 7 illustrates that the small molecular weight CD109-based peptide P16 (but not P11 or P16-1) inhibits TGF-β1-induced PAI-protein production. A431 cells were treated without (lane 1) or with 100 pM of TGF-β1 (lanes 2-6) in the absence (lane 2) or presence of 10 nM of P11 (11 aa peptide, lane 3), P16 (16 aa peptide, lane 4), P16-1 (scrambled peptide of 16 aa, lane 5) or Tris buffer (buffer, lane 6) for 24 hrs. Cell lysates were analyzed by Western blot for PAI-1 ([…]) protein levels and normalized to GAPDH protein levels (loading control). In the conditions tested, P16 (but not P11) inhibited TGF-β1-induced PAI-1 expression.
A431 cells were treated for 18 hours without (−) or with (+) 100 pM TGF-β1 in the presence or absence of Peptide X or P16. The peptides were previously dissolved in Tris buffer and left untreated or treated with DMSO prior to addition to the cells. Cell lysates were analyzed by Western blot for PAI-1 (plasminogen activator inhibitor-1) protein expression (top panel) and GAPDH served as a loading control (bottom panel). PAI-1 was not detected in untreated cells (lane 1).
A431 cells were grown in 6-well plates to 70-80% confluency and serum-starved overnight. Cells were washed with PBS and treated with or without TGF-β1 in presence or absence of various CD109-based peptides as indicated in the figure legends. Cells were solubilized with 500 μl of lysis buffer (50 mM Tris, pH 7.5, 150 mM NaCl, 50 mM NaF, 50 mM β-glycerophosphate, 1 mM sodium orthovanadate, 1 mM dithiothreitol, 5 mM EDTA, pH 8.0, 1% Nonidet P-40, 10% glycerol, 10 μM phenylmethylsulfonyl fluoride, 200 μg/ml bovine serum albumin, 1 μg/ml leupeptin, […] soybean trypsin inhibitor, 10 μg/ml benzamide, and 2 μg/ml pepstatin) for 30 min at 4° C. with mild agitation. Cell lysates were collected and centrifuged for 10 min at 10,000×g. The supernatants were collected and protein concentrations were determined using the Bio-Rad protein assay kit. Lysates containing equivalent protein concentrations were mixed with 0.2 volume of 5× electrophoresis sample buffer containing 5% β-mercaptoethanol and boiled for 5 min. Samples were resolved on 7.5% SDS-polyacrylamide gels and transferred to nitrocellulose membranes. Membranes were blocked for 3 h in blocking buffer (30 mM Tris, pH 7.5, 150 mM NaCl, and 0.05% (w/v) Tween 20™ (Tris-buffered saline/Tween) containing 5% (w/v) skim milk powder). The blot was incubated overnight at 4° C. with a 1:1000 dilution of anti-PAI-1 antibody (BD Biosciences). Blots were washed with Tris-buffered saline/Tween and incubated for 45 min at room temperature with a 1:5000 dilution of secondary antibody conjugated to horseradish peroxidase (Pierce). Chemiluminescence detection of the immune complexes was performed using the ECL system (Amersham Biosciences) according to the manufacturer's instructions. The membranes were stripped and reprobed with an anti-GAPDH antibody to confirm equal protein loading.
A431 cells were treated without (lane 1) or with 100 pM of TGF-β1 (lanes 2-6) in the absence (lane 2) or presence of 10 nM of P11 (11 aa peptide, lane 3), P16 (16 aa peptide, lane 4), P16-1 (scrambled peptide of 16 aa, lane 5) or Tris buffer (buffer, lane 6) for 24 hrs. Cell lysates were analyzed by Western blot for PAI-1 ([…]) protein levels and normalized to GAPDH protein levels (loading control).
A431 squamous cell carcinoma cells were treated for 18 hours without (−) or with (+) 100 pM TGF-β1 in the presence or absence of Peptide X or P16. The peptides were dissolved in Tris buffer and left untreated or treated with 0.5% DMSO prior to addition to the cells. Cell lysates were analyzed by Western blot for PAI-1 ([…]) protein expression (top panel) and GAPDH served as a loading control (bottom panel).

Sequence	inhibition of TGF-β1-induced PAI-1 protein production, peptide treated with DMSO	inhibition of TGF-β1-induced PAI-1 protein production, peptide in Tris left untreated	inhibition of TGF-β1-induced PAI-1 protein production (10 nM peptide, 100 pM TGF-β1, 24 hrs (FIG. 7))
ETWIWLDTNMGSRIYQ [Peptide P16]	did not enhance	inhibited	inhibited
LGSSPHVRKHFPETWIWLDTNMGSRIYQEFEVTVPDSITS (Peptide X)	inhibited	did not	–
